Earlier results on one compound are cited in PMC7237710, “Thanatin Impairs Lipopolysaccharide Transport Complex Assembly by Targeting LptC–LptA Interaction and Decreasing LptA Stability” (Frontiers in Microbiology, 2020).

“Also recorded” adds a separate entry of the source.

For one data set, the system named is LptC–LptA interaction. The conditions noted are these: yeast two-hybrid system; ref Zhang et al., 2019; cited from earlier work.
For data set [1], the system named is E. coli and other Enterobacterial species. Also on record: method as in Zhang et al., 2019. The conditions noted are these: ref Zhang et al., 2019; cited from earlier work.

Take `Clc1cc2c(c3ncccc13)OCN(CCc1ccccc1)C2` [IMB-881]: in the data set with LptC–LptA interaction, the “disruption of LptC–LptA interaction” value was “inhibiting LptC–LptA interaction; also recorded: disrupts LptC–LptA interaction”. In data set [1], the bactericidal activity result is given as “bactericidal activity”.
